Source: publication PMC9240925, “Mechanistic study of the solubilization effect of basic amino acids on a poorly water-soluble drug” (RSC Advances, 2022)
≈ marks a conversion by molar mass, not a printed value. Read-outs that look alike come from different tables or passages of the source.

What was measured:
[1] = pH-solubility study, shake flask method; format: physicochemical; conditions: mean ± SD n = 3
Procedure: The samples were then filtered using a membrane filter (syringe filter, 0.45 μm sterile). The filtered solutions were diluted within the range of calibration curves and analyzed spectrophotometrically at 260 nm.

[2] = Phase solubility diagrams of indomethacin in basic amino acid solutions and complexation efficiency; format: physicochemical; conditions: 30 °C
Procedure: After equilibration, the mixtures were centrifuged at 3750 rpm for 10 minutes (Beckman Coulter Allegra X-12 Series). […] The supernatant was filtered via a membrane filter (syringe filter, 0.45 μm sterile). The solutions were then diluted within the calibration curve range and analyzed spectrophotometrically at 260 nm. The precipitates (solid phase) were filtered again using filter paper (Whatman Grade 3). The solid phase was dried in an oven at 70 °C for 30 minutes, then examined using FTIR.
The complexation or solubilizing efficiency (CE)[36] was calculated from the slope of the linear drug–amino acid phase solubility (PS) diagram using the following eqn (1):1 [drawing 1] where K1:1 indicates to the stability constant, which is used to compare the affinity of drug to different amino acids. S0 refers to the intrinsic solubility, [drug–amino acid complex] is the concentration of dissolved drug–amino acid complex, [amino acid] is the concentration of dissolved free amino acid and slope is the slope of the phase solubility diagram.

[3] = Hydrotropic solubilization in amino acid solutions at controlled pH; format: physicochemical
Procedure: The pH of the solutions was adjusted by adding 0.1 M hydrochloric acid and monitored with a pH meter (OXOID limited, England). Excess indomethacin was then added to the amino acid solutions. The suspension was stirred with a magnetic stirrer for 24 hours at 30 ± 2 °C or 45 ± 2 °C until it is equilibrated followed by adjusting the pH again. The samples were then filtered via a membrane filter (syringe filter, 0.45 μm sterile).

[4] = Physical and chemical stability of indomethacin in solution (UV-Vis); format: physicochemical
Procedure: Spectra were collected using the UV Lambda software over the wavelength range of 400 nm–200 nm. The same solvent without the drug/amino acid was used as the reference. Samples were analyzed at identical conditions: slit width 1 nm, bandwidth 0.5 nm, pair cuvette cells 1 cm.
The results were recorded for samples stored over a week at ambient temperature (25 ± 1 °C). Chemical stability was confirmed by measuring the UV absorbance at 320 nm.

[5] = Drug content and chemical stability of freeze-dried mixtures by UV-Vis; format: physicochemical; conditions: with all amino acids, peak position at 320 nm
Procedure: The resulting filtrates were frozen for 24 hours at −80 °C and then freeze-dried for 48 hours (LTE Scientific Lyotrap Freeze Dryer, Great Britain, Greenfield, Oldham) with the system temperature of −51 ± 2 °C, pressure of around 0.1 mbar and the vacuum pump operated at a flow rate of 21 m^3 h^−1. The freeze-dried samples were then transferred into a plastic vacuum desiccator containing phosphorous pentoxide desiccant (P2O5) at ambient temperature (22 ± 2 °C). Indomethacin–sodium salt was also produced for comparison purposes.
The freeze-dried samples were prepared by dissolving 10 mg freeze-dried materials in water in a 10 mL volumetric flask. The solutions were then diluted to concentrations that fall within the calibration curve and analyzed at 320 nm. The percentage drug content[37] was calculated by eqn (2)2 [drawing 2]

[6] = Differential scanning calorimetry, glass transition; format: physicochemical; conditions: for Tg, Gordon–Taylor (glass transition temperature): calculated by Gordon–Taylor equation with crystalline densities
Procedure: DSC was performed using a Q20 instrument V24.7 build 119 thermal analysis system with an intercooler system (Elstree, United Kingdom). The DSC system was calibrated and validated using indium (average melting temperature 156.36 ± 0.03 °C and enthalpy 29.81 ± 0.05 J g^−1). Powder samples of 1 to 5 mg were weighed in T-zero aluminum pans with T-zero lids (TA Instruments – A Division of Waters Ltd, Centennial Avenue, Elstree, Hertfordshire, United Kingdom). […] All results were analyzed using the TRIOS software for the phases transitions to determine the glass transition temperature (Tg) and melting point (Tm).
Indomethacin (as received) was analyzed in two heating cycles to produce an amorphous form. The first cycle was to measure the Tm of the crystalline form and the second cycle was for obtaining the Tg of amorphous indomethacin. The freeze-dried complexes and crystalline arginine, histidine and lysine were undergone one heating cycle to determine the Tg or Tm. The Tg described by Gordon–Taylor[39] was determined for drug–basic amino acids binary systems using the given equations below.
The Gordon–Taylor equation from composite glasses:3 [drawing 3]
T g(mix) is the glass transition temperature of a binary mixture, w1 and w2 are the weight fraction and Tg1 and Tg2 are the glass transitions temperature of individual compound in the mixture, K is typically considered an empirical constant:4 [drawing 4] where p1 and p2 are the powder densities of the single amorphous components. The crystalline densities of compounds (pIND = 1.379 g cm^−3pARG = 1.325 g cm^−3, pHIS = 1.412 g cm^−3 and pLYS = 1.237 g cm^−3) were used as approximation because small differences in density were reported between crystalline and amorphous form of small molecular compound.[9]

[7] = set-up: method as in ref 34 = [34]; Robert C. W. , Handbook of Chemistry and Physics , ed. R. C. Weast , CRC Press , Ohio , 55th edn, 1975; conditions: at 25 °C; cited from earlier work
[8] = set-up: method as in ref 34 = [34]; Robert C. W. , Handbook of Chemistry and Physics , ed. R. C. Weast , CRC Press , Ohio , 55th edn, 1975; conditions: cited from earlier work
[9] = set-up: method as in ref 42 = [42]; Archontaki H. A. Kinetic Study on the Degradation of lndomethacin in Alkaline Aqueous Solutions by Derivative Ultraviolet Spectrophotometry Analyst 1995 120 1 8; conditions: pH = 13; cited from earlier work
[10] = set-up: method as in as printed in each cell: ref 60, 62, 63, 10, 64; conditions: cited from earlier work
[11] = cited from earlier work

COc1ccc2c(c1)c(CC(=O)O)c(C)n2C(=O)c1ccc(Cl)cc1 [Indomethacin]
solubility at 24 h ([1]; 25 °C, simulated gastric fluid, thermodynamic from solid, 25 ± 2 °C, water pH 1.2, unionized form, read-out: Intrinsic solubility (S0)): 0.95 µM (≈ 0.34 µg/mL)
solubility at 24 h ([1]; 25 ± 2 °C, water pH 6.3, ionized and unionized forms, read-out: Aqueous solubility (S)): 64.2 µM (≈ 23 µg/mL)
solubility at 24 h ([1]; 30 °C, aqueous buffer, thermodynamic from solid, 30 ± 2 °C, water pH 6.3, ionized and unionized forms, read-out: Aqueous solubility (S)): 81.6 µM (≈ 29.2 µg/mL)
solubility at 24 h ([1]; 30 ± 2 °C, water pH 1.2, unionized form, read-out: Intrinsic solubility (S0)): 1.18 µM (≈ 0.422 µg/mL)
Phase solubility diagram type (Higuchi and Connors) ([2]; indomethacin in arginine solution above 250 mM): AN-type
Phase solubility diagram type (Higuchi and Connors) ([2]; indomethacin in arginine solution below 250 mM): AL-type
Phase solubility diagram type (Higuchi and Connors) ([2]; indomethacin in lysine solutions): Bs-type
Solubility improvement of ionized indomethacin compared to aqueous solubility at same pH without histidine ([3]; 0.35 M histidine solution, pH 7): ~8 fold
Solubility improvement of unionized indomethacin compared to intrinsic solubility in water ([3]; 1.5 M isoleucine solution, pH 1.2, 30 °C): ~25 fold
Solubility improvement of unionized indomethacin compared to intrinsic solubility in water ([3]; 1.6 M arginine solution, pH 1.2, 30 °C): ~11 fold
Solubility change of unionized indomethacin compared to intrinsic solubility in water ([3]; glycine solution, same concentration, pH 1.2, 30 °C): did not change
Stability in solution (UV absorbance) ([4]; arginine solution, pH 10.3): gradually degraded after 24 hours
Stability in solution (UV absorbance) ([4]; basic amino acid solutions, pH 6.3 to 10.3, duration of experiment less than 24 hours): remains stable
Stability in solution (UV absorbance) ([4]; histidine solution, pH 7.5): stable over a week
Stability of indomethacin concentration in lysine aqueous solution on storage ([4]; lysine concentration between 27 and 37 mM (supersaturated, partial precipitation)): dropped after 1 day of storage
Stability of indomethacin concentration in lysine aqueous solution on storage ([4]; lysine concentrations below 27 mM, examined for ten days): appears stable
Stability in solution (UV absorbance) ([4]; lysine solution, pH 10): gradually degraded after 24 hours
Chemical stability after freeze-drying [5]: chemically stable
Tg, exp. (glass transition temperature) ([6]; DSC 5 °C/min, n = 3, IND melt quench, mixtures freeze-dried): 42.1 ± 0.5 °C
Tg, Gordon–Taylor (glass transition temperature) [6]: 42.1 °C
Water solubility [7]: 0.009 g/100 mL
log p (partition coefficient) [8]: 4.05
Stability in solution of high pH [9]: rapidly hydrolyzed
Tg, lit. (glass transition temperature) [10]: 42.0 (ref. [60]) °C

CC[C@H](C)[C@H](N)C(=O)O [Isoleucine, L-isoleucine]
Water solubility [7]: 0.41 g/100 mL
pI (isoelectric point) [11]: 6.04
log p (partition coefficient) [8]: −1.70

N=C(N)NCCC[C@H](N)C(=O)O [Arginine, L-arginine]
Tg, Gordon–Taylor (glass transition temperature) [6]: 55.0 °C

N[C@@H](Cc1c[nH]cn1)C(=O)O [Histidine, L-histidine]
Tg, Gordon–Taylor (glass transition temperature) [6]: 37.0 °C
Water solubility [7]: 4.20 g/100 mL
pI (isoelectric point) [11]: 7.59
Tg, lit. (glass transition temperature) [10]: 37.0 (ref. [63]) °C

NCC(=O)O [Glycine, glycine]
pI (isoelectric point) [11]: 5.97

NCCCC[C@H](N)C(=O)O [Lysine, L-lysine]
Tg, Gordon–Taylor (glass transition temperature) [6]: 68.0 °C
Water solubility [7]: Very soluble
pI (isoelectric point) [11]: 9.47
Tg, lit. (glass transition temperature) [10]: 68.0 (ref. [63]) °C
